Laboratory results taken from patent publication US11926621B1, “N′-(2-(5-(4-chlorophenyl)-1,3,4-oxadiazol-2-ylthio)acetoxy)benzo[d][1,3]dioxole-5-carboximidamide as an antimicrobial compound” (KING FAISAL UNIVERSITY, priority 2023, dated 2024).

Columns and labels:
Format in all cases: cell-based
Bacillus cereus = experiment: Agar plate disc-diffusion, antibacterial inhibition zone; conditions: nutrient agar, 37° C., 48 h
Experimental: The agar plate disc-diffusion method was applied. […] The discs were then placed onto the surface of agar plates (nutrient agar for bacteria and Sabouraud's dextrose agar for fungi) seeded with the test organism. Each plate contained 15 mL of the agar medium, previously seeded with 0.2 mL of the broth culture of each organism pregrown for 18 hours. The plates were incubated at 37° C. for 48 h, and 72 h for fungi. The inhibition zones were measured in mm. Discs impregnated with DMSO were used as a control, and its inhibition zone was subtracted from the tested compound actual inhibition zone.
(§1) The results of the antimicrobial testing can be observed in Tables 1 and 2, below, using ciprofloxacin as a reference.

Escherichia coli = experiment: as above; conditions: nutrient agar, 37° C., 48 h
Experimental: (§2) The agar plate disc-diffusion method was applied. Sterilized filter papers (6 mm in diameter) were wetted with 10 μL of a solution of N′-(2-(5-(4-chlorophenyl)-1,3,4-oxadiazol-2-ylthio)acetoxy)benzo[d][1,3]dioxole-5-carboximidamide (3) to be tested, […], and the discs were allowed to air dry. The discs were then placed onto the surface of agar plates (nutrient agar for bacteria and Sabouraud's dextrose agar for fungi) seeded with the test organism. Each plate contained 15 mL of the agar medium, previously seeded with 0.2 mL of the broth culture of each organism pregrown for 18 hours. The plates were incubated at 37° C. for 48 h, and 72 h for fungi. The inhibition zones were measured in mm. Discs impregnated with DMSO were used as a control, and its inhibition zone was subtracted from the tested compound actual inhibition zone.
as §1

Pseudomonas aeruginosa = experiment: as above; conditions: nutrient agar, 37° C., 48 h
Experimental: as §2, §1

Staphylococcus aureus = experiment: as above; conditions: nutrient agar, 37° C., 48 h
Experimental: as §2, §1

Aspergillus flavus = experiment: Agar plate disc-diffusion, antifungal inhibition zone; conditions: Sabouraud's dextrose agar, 72 h
Experimental: The agar plate disc-diffusion method was applied. Sterilized filter papers (6 mm in diameter) were wetted with 10 μL of a solution of N′-(2-(5-(4-chlorophenyl)-1,3,4-oxadiazol-2-ylthio)acetoxy)benzo[d][1,3]dioxole-5-carboximidamide (3) to be tested, containing 10 mg/mL in DMSO, and the discs were allowed to air dry. The discs were then placed onto the surface of agar plates (nutrient agar for bacteria and Sabouraud's dextrose agar for fungi) seeded with the test organism. Each plate contained 15 mL of the agar medium, previously seeded with 0.2 mL of the broth culture of each organism pregrown for 18 hours. The plates were incubated at 37° C. for 48 h, and 72 h for fungi. The inhibition zones were measured in mm. Discs impregnated with DMSO were used as a control, and its inhibition zone was subtracted from the tested compound actual inhibition zone.
as §1

[1] = tested on: Chrysosporium keratinophilum; experiment: as above; conditions: Sabouraud's dextrose agar, 72 h
Experimental: as §2, §1

[2] = A = concentration of comp. = 10,000 μL
[3] = B = concentration of comp. = 30.000 μL
[4] = C = concentration of comp. = 50,000 μL

With `N/C(=N\OC(=O)CSc1nnc(-c2ccc(Cl)cc2)o1)c1ccc2c(c1)OCO2` [Compound 3, N′-(2-(5-(4-chlorophenyl)-1,3,4-oxadiazol-2-ylthio)acetoxy)benzo[d][1,3]dioxole-5-carboximidamide] the “inhibition zone, Bacillus Cereus, A” value (Bacillus cereus; [2]) was 23 mm, the “inhibition zone, Bacillus Cereus, B” value (Bacillus cereus; [3]) was 28 mm and the “inhibition zone, Bacillus Cereus, C” value (Bacillus cereus; [4]) was 37 mm. For the same compound, the “inhibition zone, Escherichia coli, A” value (Escherichia coli; [2]) was 25 mm, the “inhibition zone, Escherichia coli, B” value (Escherichia coli; [3]) was 30 mm and the “inhibition zone, Escherichia coli, C” value (Escherichia coli; [4]) was 43 mm. For the same compound, the “inhibition zone, Pseudomonas aeruginosa, A” value (Pseudomonas aeruginosa; [2]) was 22 mm, the “inhibition zone, Pseudomonas aeruginosa, B” value (Pseudomonas aeruginosa; [3]) was 25 mm and the “inhibition zone, Pseudomonas aeruginosa, C” value (Pseudomonas aeruginosa; [4]) was 32 mm. For the same compound, the “inhibition zone, Staphylococcus aureus, A” value (Staphylococcus aureus; [2]) was 25 mm, the “inhibition zone, Staphylococcus aureus, B” value (Staphylococcus aureus; [3]) was 31 mm and the “inhibition zone, Staphylococcus aureus, C” value (Staphylococcus aureus; [4]) was 40 mm. For the same compound, the “inhibition zone, Aspergillus flavus, A” value (Aspergillus flavus; [2]) was 25 mm, the “inhibition zone, Aspergillus flavus, B” value (Aspergillus flavus; [3]) was 28 mm and the “inhibition zone, Aspergillus flavus, C” value (Aspergillus flavus; [4]) was 38 mm. The “inhibition zone, Chrysosporium keratinophilum, A” value [1, 2] was 24 mm, the “inhibition zone, Chrysosporium keratinophilum, B” value [1, 3] was 29 mm and the “inhibition zone, Chrysosporium keratinophilum, C” value [1, 4] was 45 mm.
